According to patent US9994570B2, “Bridged diazepane orexin receptor antagonists” (MERCK SHARP & DOHME CORP., priority 2014, dated 2018):

Legend:
human orexin-2 receptor = target: T1, human orexin-2 receptor (Homo sapiens, UniProt O43614); assay: FLIPR Ca2+ flux assay, OX2R; assay type: cell-based; settings: for IC50: CHO cells expressing the human orexin-2 receptor, agonist 70 pM Ala-6,12 orexin-A; for Fold Selective: OX1R FLIPR / OX2R FLIPR
T1 construct: expressed in transfected cells; host or cells: CHO cells (grown under G418 selection)
T1 sequence (O43614 1-444): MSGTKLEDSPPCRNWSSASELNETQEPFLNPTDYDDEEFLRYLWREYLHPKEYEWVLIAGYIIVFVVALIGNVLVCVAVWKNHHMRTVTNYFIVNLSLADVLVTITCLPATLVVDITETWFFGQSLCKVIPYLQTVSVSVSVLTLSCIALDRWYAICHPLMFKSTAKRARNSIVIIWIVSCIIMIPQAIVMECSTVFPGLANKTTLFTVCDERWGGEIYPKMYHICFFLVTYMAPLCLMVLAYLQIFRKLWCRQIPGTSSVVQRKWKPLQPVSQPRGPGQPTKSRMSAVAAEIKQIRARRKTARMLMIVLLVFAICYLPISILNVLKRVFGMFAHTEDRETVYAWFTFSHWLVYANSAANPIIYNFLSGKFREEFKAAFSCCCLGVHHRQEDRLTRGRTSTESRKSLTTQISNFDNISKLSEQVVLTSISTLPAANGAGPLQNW
Procedure: (§1) The utility of the compounds in accordance with the present invention as orexin receptor OX1R and/or OX2R antagonists may be readily determined without undue experimentation by methodology well known in the art, including the “FLIPR Ca^2+ Flux Assay” (Okumura et al., Biochem. Biophys. Res. Comm. 280:976-981, 2001). In a typical experiment the OX1 and OX2 receptor antagonistic activity of the compounds of the present invention was determined in accordance with the following experimental method. For intracellular calcium measurements, Chinese hamster ovary (CHO) cells expressing the rat orexin-1 receptor or the human orexin-2 receptor, are grown in Iscove's modified DMEM containing 2 mM L-glutamine, […], 1% hypoxanthine-thymidine supplement, 100 U/ml penicillin, 100 μg/ml streptomycin and 10% heat-inactivated fetal calf serum (FCS). The cells are seeded at 20,000 cells/well into Becton-Dickinson black 384-well clear bottom sterile plates coated with poly-D-lysine. All reagents were from GIBCO-Invitrogen Corp. The seeded plates are incubated overnight at 37° C. and 5% CO2. Ala-6,12 human orexin-A as the agonist is prepared as a 1 mM stock solution in 1% bovine serum albumin (BSA) and diluted in assay buffer (HBSS containing 20 mM HEPES, 0.1% BSA and 2.5 mM probenecid, pH7.4) for use in the assay at a final concentration of 70 pM. Test compounds are prepared as 10 mM stock solution in DMSO, then diluted in 384-well plates, first in DMSO, then assay buffer. On the day of the assay, cells are washed 3 times with 100 μl assay buffer and then incubated for 60 min (37° C., 5% CO2) in 60 μl assay buffer containing 1 μM Fluo-4AM ester, 0.02% pluronic acid, and 1% BSA. The dye loading solution is then aspirated and cells are washed 3 times with 100 μl assay buffer. 30 μl of that same buffer is left in each well. Within the Fluorescent Imaging Plate Reader (FLIPR, Molecular Devices), test compounds are added to the plate in a volume of 25 μl, incubated for 5 min and finally 25 μl of agonist is added. Fluorescence is measured for each well at 1 second intervals for 5 minutes and the height of each fluorescence peak is compared to the height of the fluorescence peak induced by 70 pM Ala-6,12 orexin-A with buffer in place of antagonist. For each antagonist, IC50 value (the concentration of compound needed to inhibit 50% of the agonist response) is determined. Alternatively, compound potency can be assessed by a radioligand binding assay (described in Bergman et. al. Bioorg. Med. Chem. Lett. 2008, 18, 1425-1430) in which the inhibition constant (Ki) is determined in membranes prepared from CHO cells expressing either the OX1 or OX2 receptor. The intrinsic orexin receptor antagonist activity of a compound which may be used in the present invention may be determined by these assays.

rat orexin-1 receptor = target: T2, rat orexin-1 receptor (Rattus norvegicus, UniProt P56718); assay: FLIPR Ca2+ flux assay, OX1R; assay type: cell-based; settings: CHO cells expressing the rat orexin-1 receptor; agonist 70 pM Ala-6,12 orexin-A
T2 construct: expressed in transfected cells; host or cells: CHO cells (grown under G418 selection)
T2 sequence (P56718 1-416): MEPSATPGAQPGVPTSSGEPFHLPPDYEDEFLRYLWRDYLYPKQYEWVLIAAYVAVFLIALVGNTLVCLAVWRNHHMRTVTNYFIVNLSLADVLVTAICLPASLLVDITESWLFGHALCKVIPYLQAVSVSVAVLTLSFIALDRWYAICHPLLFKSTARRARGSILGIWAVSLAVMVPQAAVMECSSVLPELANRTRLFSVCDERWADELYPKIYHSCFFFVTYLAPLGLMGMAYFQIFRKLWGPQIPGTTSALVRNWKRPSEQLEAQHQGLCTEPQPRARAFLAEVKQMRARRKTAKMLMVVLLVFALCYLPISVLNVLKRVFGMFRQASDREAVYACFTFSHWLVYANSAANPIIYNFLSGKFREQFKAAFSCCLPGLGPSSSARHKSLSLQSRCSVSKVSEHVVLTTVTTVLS
Procedure: as §1

| IC50 (human orexin-2 receptor) | Fold Selective (human orexin-2 receptor) | IC50 (rat orexin-1 receptor) | Structure (SMILES) |
| --- | --- | --- | --- |
| 23 nM | 81 | 1870 nM | Cc1cc(C#N)nc(N2CC3CC2CN(C(=O)c2ccccc2CC(F)(F)F)C3)n1 (stereo not drawn) [Example 1, 6-methyl-2-(3-(2-(2,2,2-trifluoroethyl)benzoyl)-3,6-diazabicyclo[3.2.1]octan-6-yl)pyrimidine-4-carbonitrile] |
| 46 nM | >217 | > 10000 nM | Cc1cc(C#N)nc(N2CC3CC2CN(C(=O)c2ccccc2OC(F)F)C3)n1 (stereo not drawn) [Example 2, 2-(3-(2-(difluoromethoxy)benzoyl)-3,6-diazabicyclo[3.2.1]-octan-6-yl)-6-methylpyrimidine-4-carbonitrile] |
| 18 nM | 178 | 3210 nM | Cc1cc(C#N)nc(N2CC3CC2CN(C(=O)c2ccccc2OCC(F)(F)F)C3)n1 (stereo not drawn) [Example 3, 6-methyl-2-(3-(2-(2,2,2-trifluoroethoxy)benzoyl)-3,6-diazabicyclo[3.2.1]octan-6-yl)pyrimidine-4-carbonitrile] |
| 19 nM | 174 | 3300 nM | Cc1cc(C#N)nc(N2CC3CC2CN(C(=O)c2cccnc2OCC(F)F)C3)n1 (stereo not drawn) [Example 4, 2-(3-{[2-(2,2-difluoroethoxy)pyridin-3-yl]carbonyl}-3,6-diazabicyclo[3.2.1]oct-6-yl)-6-methylpyrimidine-4-carbonitrile] |
| 81 nM | >123 | > 10000 nM | Cc1cc(C#N)nc(N2CC3CC2CN(C(=O)c2cccnc2C2CC2)C3)n1 (stereo not drawn) [Example 5, 2-(3-(2-cyclopropylnicotinoyl)-3,6-diazabicyclo[3.2.1]octan-6-yl)-6-methylpyrimidine-4-carbonitrile] |
| 61 nM | >164 | > 10000 nM | Cc1cc(C#N)nc(N2CC3CC2CN(C(=O)c2ccccc2CS(C)(=O)=O)C3)n1 (stereo not drawn) [Example 7, 6-methyl-2-(3-(2-((methylsulfonyl)methyl)benzoyl)-3,6-diazabicyclo[3.2.1]octan-6-yl)pyrimidine-4-carbonitrile] |
| 15 nM | 122 | 1830 nM | Cc1cc(C)nc(N2CC3CC2CN(C(=O)c2cccnc2OCC(F)F)C3)n1 (stereo not drawn) [Example 9, (2-(2,2-difluoroethoxy)pyridin-3-yl)(6-(4,6-dimethylpyrimidin-2-yl)-3,6-diazabicyclo[3.2.1]octan-3-yl)methanone] |
| 46 nM | 74 | 3410 nM | COCc1ccccc1C(=O)N1CC2CC(C1)N(c1nc(C)cc(C)n1)C2 (stereo not drawn) [Example 10, (6-(4,6-dimethylpyrimidin-2-yl)-3,6-diazabicyclo[3.2.1]octan-3-yl)(2-(methoxymethyl)phenyl)methanone] |
| 30 nM | 51 | 1530 nM | Cc1cc(C)nc(N2CC3CC2CN(C(=O)c2ccccc2OC(F)(F)F)C3)n1 (stereo not drawn) [Example 15, 6-(4,6-dimethylpyrimidin-2-yl)-3-{[2-(trifluoromethoxy)-phenyl]carbonyl}-3,6-diazabicyclo[3.2.1]octane] |
| 27 nM | 92 | 2470 nM | CSc1ccccc1C(=O)N1CC2CC(C1)N(c1nc(C)cc(C)n1)C2 (stereo not drawn) [Example 17, 6-(4,6-dimethylpyrimidin-2-yl)-3-{[2-(methylsulfanyl)-phenyl]carbonyl}-3,6-diazabicyclo[3.2.1]octane] |
| 18 nM | 148 | 2670 nM | Cc1cc(C)nc(N2CC3CC2CN(C(=O)c2cccnc2OC(C)C)C3)n1 (stereo not drawn) [Example 21, 6-(4,6-dimethylpyrimidin-2-yl)-3-{[2-(1-methylethoxy)pyridin-3-yl]carbonyl}-3,6-diazabicyclo[3.2.1]octane] |

Continued, compound first:

| Structure (SMILES) | IC50 (human orexin-2 receptor) | Fold Selective (human orexin-2 receptor) | IC50 (rat orexin-1 receptor) |
| --- | --- | --- | --- |
| Cc1cc(C)nc(N2CC3CC2CN(C(=O)c2cccnc2N(C)CC(F)F)C3)n1 (single isomer, unassigned) [Example 47] | 29 nM | 261 | 7560 nM |
| Cc1cc(C)nc(N2CC3CC2CN(C(=O)c2cc(F)cnc2C2CC2)C3)n1 (stereo not drawn) [Example 8] | 29 nM | 202 | 5860 nM |
| Cc1cc(C)nc(N2CC3CC2CN(C(=O)c2ccccc2C2CC2)C3)n1 (stereo not drawn) [Example 11, 3-[(2-cyclopropylphenyl)-carbonyl]-6-(4,6-dimethylpyrimidin-2-yl)-3,6-diazabicyclo[3.2.1]octane] | 13 nM | 47 | 613 nM |
| Cc1cc(C)nc(N2CC3CC2CN(C(=O)c2cc(F)ccc2C2CC2)C3)n1 (stereo not drawn) [Example 12, 3-[(2-cyclopropyl-5-fluorophenyl)carbonyl]-6-(4,6-dimethylpyrimidin-2-yl)-3,6-diazabicyclo[3.2.1]octane] | 22 nM | 47 | 1040 nM |
| COc1ccc(C(=O)N2CC3CC(C2)N(c2nc(C)cc(C)n2)C3)c(C2CC2)n1 (stereo not drawn) [Example 13, 3-[(2-cyclopropyl-6-methoxypyridin-3-yl)carbonyl]-6-(4,6-dimethylpyrimidin-2-yl)-3,6-diazabicyclo[3.2.1]octane] | 41 nM | 87 | 3550 nM |
| Cc1cc(C)nc(N2CC3CC2CN(C(=O)c2ccc(F)cc2C2CC2)C3)n1 (stereo not drawn) [Example 14, 3-[(2-cyclopropyl-4-fluorophenyl)carbonyl]-6-(4,6-dimethylpyrimidin-2-yl)-3,6-diazabicyclo[3.2.1]octane] | 26 nM | 56 | 1450 nM |
| Cc1cc(C)nc(N2CC3CC2CN(C(=O)c2ccccc2OC(C)C)C3)n1 (stereo not drawn) [Example 16, 6-(4,6-dimethylpyrimidin-2-yl)-3-{[2-(1-methylethoxy)-phenyl]carbonyl}-3,6-diazabicyclo[3.2.1]octane] | 16 nM | 61 | 982 nM |
| Cc1cc(C)nc(N2CC3CC2CN(C(=O)c2ccccc2C2(F)CC2)C3)n1 (stereo not drawn) [Example 18, 6-(4,6-dimethylpyrimidin-2-yl)-3-{[2-(1-fluorocyclopropyl)-phenyl]carbonyl}-3,6-diazabicyclo[3.2.1]octane] | 15 nM | 58 | 872 nM |
| Cc1cc(C)nc(N2CC3CC2CN(C(=O)c2ccccc2-n2ncnn2)C3)n1 (stereo not drawn) [Example 19, 6-(4,6-dimethylpyrimidin-2-yl)-3-{[2-(2H-tetrazol-2-yl)phenyl]carbonyl}-3,6-diazabicyclo[3.2.1]octane] | 36 nM | 44 | 1600 nM |
| Cc1cc(C)nc(N2CC3CC2CN(C(=O)c2nccnc2-n2cccn2)C3)n1 (stereo not drawn) [Example 20, 6-(4,6-dimethylpyrimidin-2-yl)-3-{[3-(1H-pyrazol-1-yl)pyrazin-2-yl]carbonyl}-3,6-diazabicyclo[3.2.1]octane] | 50 nM | 68 | 3400 nM |
